Data published in ChEMBL document CHEMBL4507279, “Data for DCP probe BI-9627” (2021).

Legend:
[1] = biological target: D(2) dopamine receptor (Homo sapiens) (UniProt P14416); settings: Compound concentration 10.0 uM
[2] = biological target: Sigma non-opioid intracellular receptor 1 (Homo sapiens) (UniProt Q99720); settings: Compound concentration 10.0 uM
[3] = biological target: Histamine H3 receptor (Homo sapiens) (UniProt Q9Y5N1); settings: Compound concentration 10.0 uM
[4] = biological target: Beta-2 adrenergic receptor (Homo sapiens) (UniProt P07550); settings: Compound concentration 10.0 uM
[5] = biological target: Pyroglutamylated RF-amide peptide receptor (Homo sapiens) (UniProt Q96P65); experiment: GPR103 Eurofins-Panlabs selectivity data (BI); settings: Compound concentration 10.0 uM
[6] = biological target: hERG (voltage-gated inwardly rectifying potassium channel KCNH2) (Homo sapiens, UniProt Q12809); experiment: K+/HERG Eurofins-Panlabs selectivity data (BI); settings: compound concentration 10 uM, read-out: % Ctrl
Sequence of hERG (voltage-gated inwardly rectifying potassium channel KCNH2) (Q12809 whole entry): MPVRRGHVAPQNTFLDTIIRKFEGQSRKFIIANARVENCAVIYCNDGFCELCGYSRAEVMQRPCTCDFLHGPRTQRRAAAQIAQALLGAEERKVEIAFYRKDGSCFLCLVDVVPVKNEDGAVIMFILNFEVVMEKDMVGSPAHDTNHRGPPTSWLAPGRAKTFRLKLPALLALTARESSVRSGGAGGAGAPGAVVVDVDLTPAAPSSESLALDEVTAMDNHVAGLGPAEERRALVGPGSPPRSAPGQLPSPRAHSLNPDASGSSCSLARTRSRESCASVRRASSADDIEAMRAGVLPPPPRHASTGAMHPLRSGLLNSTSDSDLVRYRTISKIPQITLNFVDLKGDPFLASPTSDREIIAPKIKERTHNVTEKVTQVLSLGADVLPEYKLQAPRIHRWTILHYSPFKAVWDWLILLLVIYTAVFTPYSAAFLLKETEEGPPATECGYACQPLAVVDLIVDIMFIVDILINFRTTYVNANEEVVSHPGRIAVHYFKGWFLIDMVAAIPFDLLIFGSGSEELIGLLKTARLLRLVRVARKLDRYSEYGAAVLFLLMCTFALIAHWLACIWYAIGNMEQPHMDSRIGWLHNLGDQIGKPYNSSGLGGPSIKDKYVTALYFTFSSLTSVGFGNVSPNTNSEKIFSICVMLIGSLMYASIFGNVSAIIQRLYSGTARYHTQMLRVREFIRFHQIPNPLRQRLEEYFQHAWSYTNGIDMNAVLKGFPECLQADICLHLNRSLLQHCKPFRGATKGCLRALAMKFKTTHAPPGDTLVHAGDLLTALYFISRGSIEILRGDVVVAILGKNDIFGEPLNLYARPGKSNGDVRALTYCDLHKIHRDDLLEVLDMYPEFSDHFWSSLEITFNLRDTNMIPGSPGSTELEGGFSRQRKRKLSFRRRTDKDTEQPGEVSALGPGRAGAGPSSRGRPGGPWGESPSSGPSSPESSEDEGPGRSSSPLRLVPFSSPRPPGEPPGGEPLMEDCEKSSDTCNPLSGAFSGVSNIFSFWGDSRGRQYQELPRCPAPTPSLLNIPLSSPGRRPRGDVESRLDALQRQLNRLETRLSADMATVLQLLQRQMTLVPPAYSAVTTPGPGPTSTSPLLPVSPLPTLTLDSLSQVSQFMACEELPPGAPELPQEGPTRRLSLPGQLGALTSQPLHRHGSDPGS

[7] = biological target: Prostaglandin E2 receptor EP4 subtype (Homo sapiens) (UniProt P35408); experiment: EP4/H Eurofins-Panlabs selectivity data (BI); settings: Compound concentration 10.0 uM
[8] = biological target: T1, Muscarinic acetylcholine receptor M1 (Homo sapiens) (UniProt P11229); experiment: M1/HU Eurofins-Panlabs selectivity data (BI); settings: Compound concentration 10.0 uM
T1 sequence (whole entry): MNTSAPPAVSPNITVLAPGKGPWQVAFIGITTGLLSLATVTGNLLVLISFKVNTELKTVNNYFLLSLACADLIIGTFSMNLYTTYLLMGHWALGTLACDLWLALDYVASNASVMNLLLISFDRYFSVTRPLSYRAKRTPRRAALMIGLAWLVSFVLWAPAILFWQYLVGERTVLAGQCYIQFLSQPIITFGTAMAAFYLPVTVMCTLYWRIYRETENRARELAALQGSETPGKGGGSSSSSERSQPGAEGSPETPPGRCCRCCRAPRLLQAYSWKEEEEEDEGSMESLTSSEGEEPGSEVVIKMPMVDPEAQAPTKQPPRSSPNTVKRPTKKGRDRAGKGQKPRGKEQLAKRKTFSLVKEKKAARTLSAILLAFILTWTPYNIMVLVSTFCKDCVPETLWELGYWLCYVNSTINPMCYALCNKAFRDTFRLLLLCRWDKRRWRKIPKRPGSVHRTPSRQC

[9] = biological target: Mu-type opioid receptor (Homo sapiens) (UniProt P35372); experiment: MU/HU Eurofins-Panlabs selectivity data (BI); settings: Compound concentration 10.0 uM
Sequence of Mu-type opioid receptor (Homo sapiens) (P35372 whole entry): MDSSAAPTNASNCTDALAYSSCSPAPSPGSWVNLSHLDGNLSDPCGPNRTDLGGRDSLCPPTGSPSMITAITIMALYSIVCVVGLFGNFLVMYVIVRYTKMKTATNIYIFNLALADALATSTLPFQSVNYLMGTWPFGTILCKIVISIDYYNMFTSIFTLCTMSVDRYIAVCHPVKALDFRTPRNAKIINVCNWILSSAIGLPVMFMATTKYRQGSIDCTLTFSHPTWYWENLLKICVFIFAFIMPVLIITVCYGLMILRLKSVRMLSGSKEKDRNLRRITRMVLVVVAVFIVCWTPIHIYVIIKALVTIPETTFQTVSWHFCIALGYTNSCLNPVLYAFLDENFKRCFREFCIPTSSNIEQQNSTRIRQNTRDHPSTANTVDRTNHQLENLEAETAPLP

[10] = biological target: Adenosine receptor A2a (Homo sapiens) (UniProt P29274); experiment: A2A/HU Eurofins-Panlabs selectivity data (BI); settings: Compound concentration 10.0 uM
[11] = biological target: Endothelin-1 receptor (Homo sapiens) (UniProt P25101); experiment: ETA/HU Eurofins-Panlabs selectivity data (BI); settings: Compound concentration 10.0 uM
[12] = biological target: D(3) dopamine receptor (Homo sapiens) (UniProt P35462); experiment: D3/HU Eurofins-Panlabs selectivity data (BI); settings: Compound concentration 10.0 uM
Sequence of D(3) dopamine receptor (Homo sapiens) (P35462 whole entry): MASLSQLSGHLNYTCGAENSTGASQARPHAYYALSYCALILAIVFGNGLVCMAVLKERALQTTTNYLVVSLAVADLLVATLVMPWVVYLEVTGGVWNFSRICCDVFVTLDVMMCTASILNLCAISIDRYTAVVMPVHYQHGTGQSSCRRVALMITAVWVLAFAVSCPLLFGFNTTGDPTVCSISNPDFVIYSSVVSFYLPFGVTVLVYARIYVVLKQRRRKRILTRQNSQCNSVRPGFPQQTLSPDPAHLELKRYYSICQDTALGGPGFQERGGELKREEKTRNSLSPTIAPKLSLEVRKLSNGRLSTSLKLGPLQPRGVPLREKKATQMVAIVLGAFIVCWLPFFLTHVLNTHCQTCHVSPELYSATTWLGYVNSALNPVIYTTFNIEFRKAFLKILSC

[13] = biological target: T2, Alpha-1D adrenergic receptor (Homo sapiens) (UniProt P25100); experiment: ALPHA1D/H Eurofins-Panlabs selectivity data (BI); settings: Compound concentration 10.0 uM
T2 sequence (whole entry): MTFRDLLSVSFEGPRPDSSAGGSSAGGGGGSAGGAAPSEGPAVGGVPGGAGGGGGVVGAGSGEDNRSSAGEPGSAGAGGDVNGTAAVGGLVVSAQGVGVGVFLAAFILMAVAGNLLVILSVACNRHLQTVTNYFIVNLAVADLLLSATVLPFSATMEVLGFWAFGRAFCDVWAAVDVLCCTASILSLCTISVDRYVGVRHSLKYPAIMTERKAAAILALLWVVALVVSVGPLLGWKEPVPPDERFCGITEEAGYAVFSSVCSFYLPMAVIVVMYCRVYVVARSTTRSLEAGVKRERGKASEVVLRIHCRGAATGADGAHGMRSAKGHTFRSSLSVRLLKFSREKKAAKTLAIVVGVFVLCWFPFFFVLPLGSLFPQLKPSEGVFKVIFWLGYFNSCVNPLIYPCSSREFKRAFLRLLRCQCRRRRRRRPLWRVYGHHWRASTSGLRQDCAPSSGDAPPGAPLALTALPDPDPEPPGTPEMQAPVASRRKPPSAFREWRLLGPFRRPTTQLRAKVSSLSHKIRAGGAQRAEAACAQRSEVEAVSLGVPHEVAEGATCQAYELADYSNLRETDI

[14] = biological target: Thyroid hormone receptor alpha (Rattus norvegicus) (UniProt P63059); experiment: THYROID HORM Eurofins-Panlabs selectivity data (BI); settings: Compound concentration 10.0 uM
Sequence of Thyroid hormone receptor alpha (Rattus norvegicus) (P63059 whole entry): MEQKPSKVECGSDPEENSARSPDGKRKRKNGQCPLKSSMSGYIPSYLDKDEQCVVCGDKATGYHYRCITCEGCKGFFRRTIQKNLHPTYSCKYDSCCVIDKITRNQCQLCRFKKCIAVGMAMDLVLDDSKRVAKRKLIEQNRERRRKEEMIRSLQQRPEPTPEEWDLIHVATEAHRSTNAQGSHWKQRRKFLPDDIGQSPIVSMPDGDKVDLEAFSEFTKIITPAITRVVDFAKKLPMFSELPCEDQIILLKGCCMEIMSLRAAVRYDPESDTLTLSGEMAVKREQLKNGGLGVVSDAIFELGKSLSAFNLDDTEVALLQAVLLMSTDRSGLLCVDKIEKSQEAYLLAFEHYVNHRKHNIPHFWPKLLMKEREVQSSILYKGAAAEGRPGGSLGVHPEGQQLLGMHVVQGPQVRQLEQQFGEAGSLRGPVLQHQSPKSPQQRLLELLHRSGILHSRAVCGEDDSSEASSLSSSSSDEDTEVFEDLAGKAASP

[15] = biological target: Sodium- and chloride-dependent GABA transporter 1 (Rattus norvegicus) (UniProt P23978); experiment: GABATRANS/RA Eurofins-Panlabs selectivity data (BI); settings: Compound concentration 10.0 uM
[16] = biological target: 3',5'-cyclic-AMP phosphodiesterase 4A (Rattus norvegicus) (UniProt P54748); experiment: ROLIPRAM/R Eurofins-Panlabs selectivity data (BI); settings: Compound concentration 10.0 uM
Sequence of 3',5'-cyclic-AMP phosphodiesterase 4A (Rattus norvegicus) (P54748 whole entry): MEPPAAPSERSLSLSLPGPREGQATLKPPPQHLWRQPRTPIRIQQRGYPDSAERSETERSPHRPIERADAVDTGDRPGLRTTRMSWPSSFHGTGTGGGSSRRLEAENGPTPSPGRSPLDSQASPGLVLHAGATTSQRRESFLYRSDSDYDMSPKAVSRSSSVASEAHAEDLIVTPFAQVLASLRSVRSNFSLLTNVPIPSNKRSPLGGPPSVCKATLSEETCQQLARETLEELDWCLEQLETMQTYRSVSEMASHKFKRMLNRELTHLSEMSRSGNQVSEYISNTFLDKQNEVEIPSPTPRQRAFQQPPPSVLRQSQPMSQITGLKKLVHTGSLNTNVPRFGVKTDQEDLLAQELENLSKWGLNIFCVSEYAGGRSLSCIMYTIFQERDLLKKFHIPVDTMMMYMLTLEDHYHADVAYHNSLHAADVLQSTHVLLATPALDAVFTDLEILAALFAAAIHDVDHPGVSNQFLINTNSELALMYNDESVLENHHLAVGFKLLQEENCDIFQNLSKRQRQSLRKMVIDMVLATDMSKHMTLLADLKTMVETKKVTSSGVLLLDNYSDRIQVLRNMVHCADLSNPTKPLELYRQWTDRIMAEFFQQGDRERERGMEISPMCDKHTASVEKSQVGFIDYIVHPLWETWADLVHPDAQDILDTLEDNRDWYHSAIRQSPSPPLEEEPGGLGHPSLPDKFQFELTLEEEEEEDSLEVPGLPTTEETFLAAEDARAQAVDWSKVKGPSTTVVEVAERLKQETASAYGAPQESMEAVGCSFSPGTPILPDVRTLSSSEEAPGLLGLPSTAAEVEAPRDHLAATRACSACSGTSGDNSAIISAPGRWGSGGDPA

[17] = biological target: Glutamate receptor ionotropic, NMDA 2A (Rattus norvegicus) (UniProt Q00959); settings: Compound concentration 10.0 uM
[18] = biological target: ATP-sensitive inward rectifier potassium channel 1 isoform X1 (Mesocricetus auratus) (UniProt A0A1U8CU73); settings: Compound concentration 10.0 uM
[19] = biological target: Substance-P receptor (Homo sapiens) (UniProt P25103); experiment: NK1/HU Eurofins-Panlabs selectivity data (BI); settings: Compound concentration 10.0 uM
Sequence of Substance-P receptor (Homo sapiens) (P25103 whole entry): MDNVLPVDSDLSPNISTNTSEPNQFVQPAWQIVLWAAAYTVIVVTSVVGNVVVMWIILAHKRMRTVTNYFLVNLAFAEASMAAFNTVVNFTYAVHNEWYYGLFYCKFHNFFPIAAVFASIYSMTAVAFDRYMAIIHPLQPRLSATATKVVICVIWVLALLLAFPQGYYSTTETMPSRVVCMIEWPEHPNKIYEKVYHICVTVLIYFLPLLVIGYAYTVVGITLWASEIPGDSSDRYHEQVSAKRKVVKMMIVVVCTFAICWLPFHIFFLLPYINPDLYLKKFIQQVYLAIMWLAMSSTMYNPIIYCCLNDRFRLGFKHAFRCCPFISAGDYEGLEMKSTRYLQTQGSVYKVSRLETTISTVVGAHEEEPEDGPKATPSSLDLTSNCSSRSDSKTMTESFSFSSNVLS

[20] = biological target: Voltage-dependent L-type calcium channel subunit alpha-1C (DHP site) (Rattus norvegicus, UniProt P22002); experiment: CA+/DHPSI/RA Eurofins-Panlabs selectivity data (BI); settings: compound concentration 10 uM, read-out: % Ctrl
[21] = biological target: T3, Muscarinic acetylcholine receptor M2 (Homo sapiens) (UniProt P08172); experiment: M2/HU Eurofins-Panlabs selectivity data (BI)
T3 sequence (whole entry): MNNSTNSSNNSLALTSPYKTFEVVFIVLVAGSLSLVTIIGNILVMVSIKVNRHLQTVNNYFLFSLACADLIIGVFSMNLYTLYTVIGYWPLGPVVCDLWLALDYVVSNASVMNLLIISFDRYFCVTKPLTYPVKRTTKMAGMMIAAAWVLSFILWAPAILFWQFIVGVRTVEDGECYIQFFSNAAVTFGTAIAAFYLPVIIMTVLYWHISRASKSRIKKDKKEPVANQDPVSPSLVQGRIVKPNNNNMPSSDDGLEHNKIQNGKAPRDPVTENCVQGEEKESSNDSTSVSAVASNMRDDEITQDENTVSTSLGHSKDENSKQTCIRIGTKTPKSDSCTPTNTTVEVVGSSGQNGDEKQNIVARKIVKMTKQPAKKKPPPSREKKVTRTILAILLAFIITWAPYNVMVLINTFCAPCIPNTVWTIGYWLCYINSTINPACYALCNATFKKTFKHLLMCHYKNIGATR

[22] = biological target: Muscarinic acetylcholine receptor M3 (Homo sapiens) (UniProt P20309); experiment: M3/HU Eurofins-Panlabs selectivity data (BI); settings: Compound concentration 10.0 uM
Sequence of Muscarinic acetylcholine receptor M3 (Homo sapiens) (P20309 whole entry, looked up): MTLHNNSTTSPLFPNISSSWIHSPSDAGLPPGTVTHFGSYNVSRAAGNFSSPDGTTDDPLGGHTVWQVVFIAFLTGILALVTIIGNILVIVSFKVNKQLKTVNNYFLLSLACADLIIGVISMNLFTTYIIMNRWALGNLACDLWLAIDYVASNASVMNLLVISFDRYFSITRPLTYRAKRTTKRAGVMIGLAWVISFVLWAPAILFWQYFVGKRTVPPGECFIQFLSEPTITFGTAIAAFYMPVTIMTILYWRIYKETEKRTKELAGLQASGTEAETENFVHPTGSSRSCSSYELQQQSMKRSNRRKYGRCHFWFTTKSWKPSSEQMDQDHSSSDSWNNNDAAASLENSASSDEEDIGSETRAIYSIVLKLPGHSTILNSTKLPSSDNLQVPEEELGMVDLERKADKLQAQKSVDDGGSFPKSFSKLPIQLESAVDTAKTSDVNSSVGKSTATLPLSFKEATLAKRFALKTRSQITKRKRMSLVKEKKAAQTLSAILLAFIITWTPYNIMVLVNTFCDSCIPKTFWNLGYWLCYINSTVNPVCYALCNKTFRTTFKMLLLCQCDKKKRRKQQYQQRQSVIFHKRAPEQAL

[23] = biological target: Cysteinyl leukotriene receptor 1 (Homo sapiens) (UniProt Q9Y271); experiment: CYSLT1_HS Eurofins-Panlabs selectivity data (BI); settings: Compound concentration 10.0 uM
Sequence of Cysteinyl leukotriene receptor 1 (Homo sapiens) (Q9Y271 whole entry): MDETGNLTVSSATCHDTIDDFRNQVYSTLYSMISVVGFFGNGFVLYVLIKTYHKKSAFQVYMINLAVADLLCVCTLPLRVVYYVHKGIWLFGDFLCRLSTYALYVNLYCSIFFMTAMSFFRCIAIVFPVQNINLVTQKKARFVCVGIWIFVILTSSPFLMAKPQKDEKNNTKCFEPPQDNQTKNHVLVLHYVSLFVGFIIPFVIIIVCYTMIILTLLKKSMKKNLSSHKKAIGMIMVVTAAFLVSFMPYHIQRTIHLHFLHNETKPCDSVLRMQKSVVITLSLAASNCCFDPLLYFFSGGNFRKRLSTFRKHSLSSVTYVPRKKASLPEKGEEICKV

Sequence of Sigma non-opioid intracellular receptor 1 (Homo sapiens) (Q99720 whole entry): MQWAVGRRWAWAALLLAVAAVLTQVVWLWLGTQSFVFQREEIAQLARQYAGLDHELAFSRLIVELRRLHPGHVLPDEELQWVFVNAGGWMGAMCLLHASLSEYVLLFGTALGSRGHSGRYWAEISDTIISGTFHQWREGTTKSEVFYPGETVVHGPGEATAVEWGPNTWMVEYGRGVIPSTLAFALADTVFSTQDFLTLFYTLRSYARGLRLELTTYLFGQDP

CC(=O)N1CCC(c2ccc(C(=O)NC3=NCCN3)cc2C(F)(F)F)CC1 [BI 0054]
inhibition [1]: -4.57%
inhibition [2]: -8.45%

CC(=O)N1CCC(c2ccc(C(=O)NC(=N)N)cc2C(F)(F)F)CC1 [BI 9627]
inhibition [3]: -6.54%
inhibition [4]: -9.75%
residual activity [5]: 92%
activity at 10 µM [6]: 105% (not active)
residual activity [7]: 99%
residual activity [8]: 61%
residual activity [9]: 91%
residual activity [10]: 86%
residual activity [11]: 103%
residual activity [12]: 117%
residual activity [13]: 98%
residual activity [14]: 93%
residual activity [15]: 101%
residual activity [16]: 92%
residual activity [17]: 96%
residual activity [18]: 96%
residual activity [19]: 100%
activity at 10 µM [20]: 77% (not active)
residual activity ([21]; Compound concentration 0.03 uM): 102%
residual activity ([21]; Compound concentration 0.1 uM): 108%
residual activity ([21]; Compound concentration 0.3 uM): 71%
residual activity ([21]; Compound concentration 1.0 uM): 70%
residual activity ([21]; Compound concentration 3.0 uM): 48%
residual activity ([21]; Compound concentration 10.0 uM): 33%
residual activity ([21]; Compound concentration 30.0 uM): 11%
residual activity [22]: 79%
residual activity [23]: 95%
